One compound from PMC6094173, “Releasable and traceless PEGylation of arginine-rich antimicrobial peptides” (Chemical Science, 2017) can be followed below.

Square brackets hold non-standard residues; d marks the D form. Peptide text beside a SMILES is read from it. * marks the point of attachment. FITC = O=C1OC2(c3ccc(O)cc3Oc3cc(O)ccc32)c2ccc(NC(=S)*)cc21; Ahx = NCCCCCC(=O)O

The subject of one series is trypsin. The experiment in a line: Resistance to proteolysis in human serum spiked with trypsin, read out by antibacterial activity. The series is classed as in vitro ADME. The following applies: ∼90% human serum with 0.01 wt% trypsin, r.t.; read-out anti-proliferative effect on E. coli. The protocol: (§1) In order to validate that the PEGylated AMPs are resistant to proteolysis, [3 + 2a] (2 kDa) was incubated in ∼90% human serum (final concentration) spiked with 0.01 wt% trypsin for up to 24 h. To prevent de-PEGylation during this incubation period (i.e., to test the protease-resistance of the conjugate rather than the released AMP (known to be degradable; vide infra)), the concentration of [3 + 2a] was maintained high, and a small excess of free 2a was kept in solution. Based on Fig. 2 and 4, these conditions promote the forward PEGylation reaction and disfavor de-PEGylation. Following the incubation period (1 h, 6 h, or 24 h), serum proteins and trypsin were removed to stop proteolysis, and the integrity of the AMP 3 within the conjugate was evaluated via its anti-proliferative effect on E. coli. […]
[…] 5 h t o obtain mid-logarithmic phase organisms (10^9 cfu· mL –1). […] After this period, proteins were immediately removed by addition of 1.5 mL acetonitrile, sedimentation of precipitate by centrifugation, quantitative recovery of the supernatant, and drying by freeze-drying (FreeZone 4.5, Labconco). […] After addition of analyte to the w el l, the mi cr op lat e was in cub at ed at 37 °C for 16 h with shaking, and growth inhibition was determined by measuring absorbance at 620 nm using a Cytation 5 multi- mode microplate reader (BioTek Inc., VT). […]

The test system of a further series is E. coli B. The series is classed as cell-based, Escherichia coli B. The following applies: 16 h. The protocol:
as §1
reaction by HPLC using the fluorescence detector. Kinetics were monitored in triplicate. […]
To determine peptide content, a known mass of conjugate was dissolved in 500 µL D2O, and the absorbance of the solution at 452 nm (the FITC dye on the peptide) was compared to a standard curve obtained with the pure peptide. Then, to deter mine the number of moles of mPEG within this solution, a small amount (5 µL) of dimethyl sulfoxide was quantitatively added to a known volume of the D2O solution, and a 1H NMR spectrum recorded. […]

Take `CC[C@@H](C)[C@@H](NC(=O)[C@H](CCCNC(=N)N)NC(=O)[C@H](CCC(N)=O)NC(=O)[C@@H](NC(=O)[C@H](NC(=O)[C@H](CCCNC(=N)N)NC(=O)[C@H](CCCCN)NC(=O)[C@H](Cc1ccccc1)NC(=O)CNC(=O)CCCCCNC(=S)Nc1ccc2c(c1)C(=O)OC21c2ccc(O)cc2Oc2cc(O)ccc21)[C@H](C)CC)C(C)C)C(=O)N[C@@H](CCCCN)C(=O)N[C@@H](CC(=O)O)C(=O)N[C@@H](Cc1ccccc1)C(=O)N[C@H](CC(C)C)C(=O)N[C@@H](CCCNC(=N)N)C(=O)N[C@@H](CC(N)=O)C(=O)N[C@@H](CC(C)C)C(=O)N[C@H](C(N)=O)C(C)C` [compound 3] ({FITC-Ahx}-GFKR[dI]VQR[dI]KDF[dL]RNLV-NH2): the “Time to loss of antimicrobial properties in trypsin-spiked serum” value in the series on trypsin was “less than 6 h”. The IC50 (as a rule, the concentration that inhibits the measured activity by half) in the series on E. coli B is 8 ± 5 µM.
